Laboratory results published in patent publication US20240285770A1, “PRECIPITATION SUPPRESSING AGENT” (Nippon Shinyaku Co., Ltd., priority 2021, published 2024).

Columns and labels:
[1] = Precipitation suppression with trehalose: absorbance at 620 nm of antisense oligomer in KCl/NaCl solution assumed to be in urine; format: physicochemical; details: Example 7: trehalose 45 to 180 mg/mL with PMO Nos. 1, 2, 7, and 8, 37° C., Tables 18 to 21
Protocol: The presence or absence of the precipitation suppressing effects can be determined by adding the antisense oligomer and the precipitation suppressing agent in a solvent simulating urine and examining as described in Examples whether or not the precipitation suppressing agent reduces an increase in absorbance caused by precipitation of the antisense oligomer. For example, after the antisense oligomer and the precipitation suppressing agent are added to the solvent (e.g., 5 minutes later, 10 minutes later, 15 minutes later, 20 minutes later, 25 minutes later, 30 minutes later, 40 minutes later, 50 minutes later, 60 minutes later, 70 minutes later, 80 minutes later, or 90 minutes later), the absorbance can be determined under the conditions of 37° C. At this time, compared to a case of adding no precipitation suppressing agent, it can be determined to be effective in suppressing precipitation when a time until the precipitation is observed (until the increased absorbance at 620 nm is observed) or the absorbance at 620 nm are reduced, for example, by 5% or more, 10% or more, 20% or more, 30% or more, 40% or more, or 50% or more in the case of adding the precipitation suppressing agent. […]

kidney [2] = format: in vivo, C57BL/6J male mice; details: sucrose 20 to 100 mg/mL co-administered with PMO No. 8 50 mg/mL, 10 mL/kg tail vein, mice
Protocol: The antisense oligomer of PMO No. 8 was dissolved in water for injection comprising 0.9% sodium chloride, and a solution obtained by dissolving sucrose (manufactured by FUJIFILM Wako Pure Chemical Corporation) with physiological saline was added thereto to prepare a dosing solution comprising each of the antisense oligomer and sucrose at the concentrations shown in Tables 12 and 13. The obtained dosing solutions were administered into the tail vein of 6-week-old C57BL/6J male mice (N=3) at the amount of dosing solution shown in Table 12 (10 mL/kg). Next day, some mice to which the antisense oligomer of PMO No. 8 had been administered were subjected to autopsy, and formalin-fixed paraffin-embedded samples of the respective kidneys were prepared. Sections obtained by slicing the samples were subjected to hematoxylin-eosin staining and a histopathological test of the sections was performed.

kidney [3] = format: in vivo, C57BL/6J male mice; details: sucrose 200 mg/mL co-administered with PMO No. 11 130 mg/mL, 20 mL/kg tail vein, mice
Protocol: The antisense oligomer of PMO No. 11 was dissolved in physiological saline to prepare a control dosing solution comprising the antisense oligomer at the concentration shown in Table 14 and comprising no sucrose. Next, the antisense oligomer of PMO No. 11 and sucrose were dissolved in physiological saline to prepare dosing solutions comprising the antisense oligomer and sucrose at the concentrations shown in Table 14. The obtained dosing solutions were administered into the tail vein of 6-week-old C57BL/6J male mice (N=5) at 20 mL/kg. Next day, the mice were subjected to autopsy, and formalin-fixed paraffin-embedded samples of the respective kidneys were prepared. Sections obtained by slicing the samples were subjected to hematoxylin-eosin staining and a histopathological test of the sections was performed. Compared to the mice to which the control dosing solution comprising no sucrose has been administered, it was determined that the precipitation was suppressed in a case where there was improvement in the findings on the histopathological test of the kidney of the mice to which the dosing solution comprising sucrose has been administered.

[4] = Precipitation suppression with sucrose: absorbance at 620 nm of antisense oligomer in KCl/NaCl solution assumed to be in urine; format: physicochemical
Protocol: The presence or absence of the precipitation suppressing effects can be determined by adding the antisense oligomer and the precipitation suppressing agent in a solvent simulating urine and examining as described in Examples whether or not the precipitation suppressing agent reduces an increase in absorbance caused by precipitation of the antisense oligomer. For example, after the antisense oligomer and the precipitation suppressing agent are added to the solvent (e.g., 5 minutes later, 10 minutes later, 15 minutes later, 20 minutes later, 25 minutes later, 30 minutes later, 40 minutes later, 50 minutes later, 60 minutes later, 70 minutes later, 80 minutes later, or 90 minutes later), the absorbance can be determined under the conditions of 37° C. At this time, compared to a case of adding no precipitation suppressing agent, it can be determined to be effective in suppressing precipitation when a time until the precipitation is observed (until the increased absorbance at 620 nm is observed) or the absorbance at 620 nm are reduced, for example, by 5% or more, 10% or more, 20% or more, 30% or more, 40% or more, or 50% or more in the case of adding the precipitation suppressing agent. […] The absorbance at 620 nm of the solution thus mixed was measured using a plate reader, Infinite F200 Pro (manufactured by Tecan Group Ltd.) under heating conditions of 37° C. […]

## OC[C@H]1O[C@H](O[C@H]2O[C@H](CO)[C@@H](O)[C@H](O)[C@H]2O)[C@H](O)[C@@H](O)[C@@H]1O [trehalose]
[1]
  precipitation suppressing effect on antisense oligomers: suppress the precipitation of antisense oligomers

## OC[C@H]1O[C@@](CO)(O[C@H]2O[C@H](CO)[C@@H](O)[C@H](O)[C@H]2O)[C@@H](O)[C@@H]1O [sucrose]
Kidney [2]
  precipitation suppressing effect in kidney (amount of precipitates, basophilic substances in lumens of renal tubules): amount of precipitates decreased according to the concentrations of sucrose
Kidney [3]
  precipitation suppression in kidney (improvement in findings on histopathological test): confirmed to suppress precipitation
[4]; Example 3: sucrose 45 to 270 mg/mL with PMO Nos. 8, 9, 10, 11, KCl and NaCl, 37° C., Tables 4 to 11
  precipitation suppressing effect on antisense oligomers: suppress the precipitation of antisense oligomers
[4]; Example 6: sucrose 45 to 135 mg/mL with PMO Nos. 1, 2, and 7, 37° C., Tables 15 to 17
  precipitation suppressing effect on antisense oligomers: suppress the precipitation of antisense oligomers
